Reference: PubChem BioAssay AID488840 (Broad Institute, 2010)
Active and inactive are the calls of the source.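 How the source made its calls: active means half-maximal dose of signal decrease from fit no higher than ten times the top valid tested dose; inconclusive means fit invalid, or curve flat with 30 to 70% inhibition; inactive means the rest.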

Target: Lysine-specific demethylase 4A (Homo sapiens) (UniProt O75164)
Experiment: inhibition of JMJD2A H3K9me3 demethylation – biochemical, DELFIA europium, cherry-picked samples, selectivity assay for GASC-1 inhibitor project, dose response (AID 488840);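 further: europium signal reports the dimethyl H3K9 product detected by antibody so inhibitors lower it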
Conditions: GST-JMJD2A(1-420) H3K9me3 demethylation

Chain of Lysine-specific demethylase 4A (Homo sapiens) (O75164 whole entry, looked up): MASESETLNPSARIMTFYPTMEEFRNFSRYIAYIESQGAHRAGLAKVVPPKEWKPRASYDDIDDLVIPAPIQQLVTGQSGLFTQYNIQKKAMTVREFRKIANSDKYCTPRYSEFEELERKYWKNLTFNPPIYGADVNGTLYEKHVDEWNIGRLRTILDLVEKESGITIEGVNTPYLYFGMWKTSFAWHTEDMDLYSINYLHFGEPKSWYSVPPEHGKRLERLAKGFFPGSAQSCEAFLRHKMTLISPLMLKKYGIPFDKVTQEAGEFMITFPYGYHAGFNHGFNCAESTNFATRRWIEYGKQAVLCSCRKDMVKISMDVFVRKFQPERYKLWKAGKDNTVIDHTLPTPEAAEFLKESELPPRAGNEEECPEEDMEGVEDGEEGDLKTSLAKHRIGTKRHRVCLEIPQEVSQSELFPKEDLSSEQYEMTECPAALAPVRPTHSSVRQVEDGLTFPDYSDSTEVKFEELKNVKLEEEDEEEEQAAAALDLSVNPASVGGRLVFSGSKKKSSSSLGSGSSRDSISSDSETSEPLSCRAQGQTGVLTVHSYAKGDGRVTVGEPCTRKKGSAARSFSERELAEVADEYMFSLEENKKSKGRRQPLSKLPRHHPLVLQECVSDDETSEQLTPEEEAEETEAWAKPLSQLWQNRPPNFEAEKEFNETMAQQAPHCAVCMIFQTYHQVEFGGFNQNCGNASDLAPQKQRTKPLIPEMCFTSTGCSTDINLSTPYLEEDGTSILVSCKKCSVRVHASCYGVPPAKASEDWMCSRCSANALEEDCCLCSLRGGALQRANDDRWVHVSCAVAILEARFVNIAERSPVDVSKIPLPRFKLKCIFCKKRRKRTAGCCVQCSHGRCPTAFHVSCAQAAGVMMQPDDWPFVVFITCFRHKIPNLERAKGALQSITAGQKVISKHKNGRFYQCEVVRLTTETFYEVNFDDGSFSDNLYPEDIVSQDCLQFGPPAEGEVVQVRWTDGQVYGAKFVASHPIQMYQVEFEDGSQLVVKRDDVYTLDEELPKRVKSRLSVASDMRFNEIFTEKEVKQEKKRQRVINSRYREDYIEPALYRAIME

AC50: > 6 µM (inactive)
SMILES: CC(=O)C[C@@H](O)CC(=O)[C@H]1OC(=O)[C@H](C)CCCCc2ccccc21
